Assays:
Format in all cases: in vivo
[1] = test system: Blumeria graminis f. sp. tritici; assay: Test G: wheat powdery mildew, preventive spray on wheat seedlings; details: 40 ppm test suspension sprayed to run-off on wheat seedlings, inoculated with spore dust the following day; 100 = 100% disease control, 0 = no control; triplicate, averaged
Description: (§1) General protocol for preparing test suspensions for Tests A-G: the test compounds were first dissolved in acetone in an amount equal to 3% of the final volume and then suspended at the desired concentration (in ppm) in acetone and purified water (50/50 mix by volume) containing 250 ppm of the surfactant Trem® 014 (polyhydric alcohol esters). The resulting test suspensions were then used in Tests A-G. Each test was conducted in triplicate, and the results were averaged. Spraying a 40 ppm test suspension to the point of run-off on the test plants was the equivalent of a rate of about 160 g/ha. Unless otherwise indicated, the rating values indicate a 40 ppm test suspension was used.
The test suspension was sprayed to the point of run-off on wheat seedlings. The following day the seedlings were inoculated with a spore dust of Blumeria graminis f. sp. tritici (also known as Erysiphe graminis f. sp. tritici, the causal agent of wheat powdery mildew) and incubated in a growth chamber at 20° C. for 8 days, after which time visual disease ratings were made.
(§2) Results for Tests A-G are given in Table A. In the Table, a rating of 100 indicates 100% disease control and a rating of 0 indicates no disease control (relative to the controls). A hyphen (-) indicates no test results.

Alternaria solani = assay: Test B: tomato early blight, preventive spray on tomato seedlings; details: 40 ppm test suspension sprayed to run-off on tomato seedlings, inoculated the following day; 100 = 100% disease control, 0 = no control; triplicate, averaged
Description: as §1
(§3) The test suspension was sprayed to the point of run-off on tomato seedlings. The following day the seedlings were inoculated with a spore suspension of Alternaria solani (the causal agent of tomato early blight) and incubated in a saturated atmosphere at 27° C. for 48 h, and then moved to a growth chamber at 20° C. for 5 days, after which time visual disease ratings were made.
as §2

Septoria nodorum = assay: Test C: Septoria glume blotch, preventive spray on wheat seedlings; details: 40 ppm test suspension sprayed to run-off on wheat seedlings, inoculated the following day; 100 = 100% disease control, 0 = no control; triplicate, averaged
Description: as §1
as §3, with “wheat” for “tomato”, “Septoria nodorum” for “Alternaria solani”, “Septoria glume blotch)” for “tomato early blight)”, “24°” for “27°”, “9” for “5”
as §2

Botrytis cinerea = assay: Test A: tomato Botrytis, preventive spray on tomato seedlings; details: 40 ppm test suspension sprayed to run-off on tomato seedlings, inoculated the following day; 100 = 100% disease control, 0 = no control; triplicate, averaged
Description: as §1
as §3, with “Botrytis cinerea” for “Alternaria solani”, “Botrytis)” for “early blight)”, “in” for “in a”, “20°” for “27°”, “24°” for “20°”, “3 additional” for “5”
as §2

[2] = test system: Puccinia recondite f. sp. tritici; assay: Test F: wheat leaf rust, preventive spray on wheat seedlings; details: 40 ppm test suspension sprayed to run-off on wheat seedlings, inoculated the following day; 100 = 100% disease control, 0 = no control; triplicate, averaged
Description: as §1
as §3, with “wheat” for “tomato”, “Puccinia recondite f. sp. tritici” for “Alternaria solani”, “wheat leaf rust)” for “tomato early blight)”, “20°” for “27°”, “24” for “48”, “6” for “5”
as §2

Septoria tritici = assay: Test D: wheat leaf blotch, preventive spray on wheat seedlings; details: 40 ppm test suspension sprayed to run-off on wheat seedlings, inoculated the following day; 100 = 100% disease control, 0 = no control; triplicate, averaged
Description: as §1
The test suspension was sprayed to the point of run-off on wheat seedlings. The following day the seedlings were inoculated with a spore suspension of Septoria tritici (the causal agent of wheat leaf blotch) and incubated in saturated atmosphere at 24° C. for 48 h. and then the seedlings were moved to a growth chamber at 20° C. for 19 additional days, after which time visual disease ratings were made.
as §2

[3] = test system: Puccinia recondite f. sp. tritici; assay: Test E: wheat leaf rust, spray after inoculation of wheat seedlings; details: 40 ppm test suspension sprayed on wheat seedlings after inoculation (24 h incubation, then 2 days in growth chamber); 100 = 100% disease control, 0 = no control; triplicate, averaged
Description: as §1
Wheat seedlings were inoculated with a spore suspension of Puccinia recondite f. sp. tritici (the causal agent of wheat leaf rust) and incubated in a saturated atmosphere at 20° C. for 24 h, and then moved to a growth chamber at 20° C. for 2 days. After 2 days, the test suspension was sprayed to the point of run-off on the wheat seedlings, and then the seedlings were moved back to the growth chamber at 20° C. for 4 days. Upon removal, visual disease ratings were made.
as §2

Compound	Test G rating (disease control) [1]	Test B rating (disease control) (Alternaria solani)	Test C rating (disease control) (Septoria nodorum)	Test A rating (disease control) (Botrytis cinerea)	Test F rating (disease control) [2]	Test D rating (disease control) (Septoria tritici)	Test E rating (disease control) [3]
Cc1ncn(Nc2ccc(F)cc2Cl)c1-c1ccc(F)cc1F [Compound 1, N-(2-chloro-4-fluorophenyl)-5-(2,4-difluorophenyl)-4-methyl-1H-imidazol-1-amine]	91%	70%	0%	100%	95%	92%	
Cc1nc(Br)n(Nc2ccc(F)cc2Cl)c1-c1ccc(F)cc1F [Compound 2, 2-bromo-N-(2-chloro-4-fluorophenyl)-5-(2,4-difluorophenyl)-4-methyl-1H-imidazol-1-amine]	100%	0%	60%	99%	99%	100%	30%
Cc1ncn(Nc2ccc(Cl)cc2Cl)c1-c1ccc(F)cc1 [Compound 3]	0%	0%	0%		41%	99%	0%
Cc1nc(Br)n(Nc2ccc(Cl)cc2Cl)c1-c1ccc(Cl)cc1 [Compound 5]	0%	0%	0%		9%	99%	0%
Cc1nc(Br)n(Nc2ccc(Cl)cc2Cl)c1-c1ccc(F)cc1 [Compound 6]	0%	0%	0%	16%	55%	93%	
Cc1ncn(Nc2ccc(Cl)cc2Cl)c1-c1ccc(F)cc1F [Compound 7, 5-(2,4-difluorophenyl)-N-(2,4-dichlorophenyl)-4-methyl-1H-imidazol-1-amine]	91%	0%	0%	100%	97%	100%	0%
Cc1nc(Br)n(Nc2c(Cl)cc(Cl)cc2Br)c1-c1ccc(F)cc1F [Compound 8, N-(2-bromo-4,6-dichlorophenyl)-4-methyl-2-bromo-5-(2,4-difluorophenyl)-1H-imidazol-1-amine]	98%	9%	0%	99%	100%	100%	19%
Cc1ncn(Nc2ccc(F)cc2F)c1-c1ccc(F)cc1F [Compound 9]	0%	0%	0%	87%	14%	79%	36%
Cc1nc(Br)n(Nc2ccc(F)cc2F)c1-c1ccc(F)cc1F [Compound 10, 2-bromo-N,5-bis(2,4-difluorophenyl)-4-methyl-1H-imidazol-1-amine]	96%	40%	0%	99%	100%	100%	7%
Fc1cc(F)c(Nn2c(Cl)nc(Cl)c2-c2ccc(Cl)cc2Cl)c(Cl)c1 [Compound 11, N-(2-chloro-4,6-difluorophenyl)-2,4-dichloro-5-(2,4-dichlorophenyl)-1H-imidazol-1-amine]	52%	0%	0%	0%	0%	0%	0%
Fc1ccc(-c2c(C(Cl)Cl)nc(Cl)n2Nc2ccc(F)cc2Cl)c(F)c1 [Compound 12]	73%	0%	0%	0%	86%	89%	0%
Fc1ccc(-c2c(CCl)nc(Cl)n2Nc2ccc(F)cc2Cl)c(F)c1 [Compound 13]	98%	0%	0%	66%	95%	97%	0%
Fc1ccc(Nn2c(Br)nc(Br)c2-c2ccc(Cl)cc2Cl)c(F)c1 [Compound 14]	0%	0%	0%	0%	0%	0%	0%

Source: US20140194473A1, “IMIDAZOLE FUNGICIDES” (E I Du Pont De Nemours And Company, priority 2013, published 2014)
